Our source for the minimal effective dose and LD50 values is patent EP0169405A2, “Use of substituted pyrimido (5,4-d) pyrimidines” (BOEHRINGER INGELHEIM KG, priority 1984, dated 1986).

Like-named read-outs stand apart in the source and are kept apart here.

For data set [1], the system named is Störung des Kurzzeitgedächtnisses. The experiment in a line: Reversal of scopolamine-induced disturbance of short-term memory. Type of data set: in vivo. To be noted: po; scopolamine-induced memory disturbance is reversed; read-out: niedrigste wirksame Dosis (wirksam ab). The source says: In der Formel I bedeutet • ^R1 einen Cl-C3-Alkoxy-(C2-C3-alkyl)rest, • ^R2 einen C2-C6-Hydroxyalkylrest oder einen C3-Dihydroxy- alkylrest, • ^R3 einen C1-C3-Alkoxy-(C2-C3-alkyl) rest oder einen C2-C3-Hydroxyalkylrest, • R4 einen Dialkylaminorest, wobei jeder Alkylrest 1 bis 6 C-Atome enthalten kann, die Diallyl- oder Di-(methoxyethyl)-aminogruppe oder einen gegebenenfalls durch eine Methylgruppe substituierten Pyrrolidino-, Piperidino-, Hexamethylenamino-, 1', 2', 5', 6'-Tetrahydropyridino-, Morpholino-, Thiomorpholino- oder 1-Oxidothiomorpholinoring. Die Verbindungen können als freie Basen oder als physiologisch verträgliche Säureadditionssalze mit anorganischen oder organischen Säuren vorliegen. Es wurde nun in tierexperimentellen Untersuchungen gefunden, daß die Verbindungen überraschenderweise besonders zur Beeinflussung eingeschränkter zerebraler Leistungsfähigkeit geeignet sind. Die folgenden Ergebnisse stützen diese Aussage: • 1. Durch gabe des muskarinen cholinergen Antagonisten Scopolamin wird eine Störung des Kurzzeitgedächtnisses bzw. des Übergangs von Inhalten des Kurzzeit- in das sogenannte Langzeitgedächnis erzeugt. Diese Einschränkung wird durch die neuen Verbindungen aufgehoben. […]

A short description of data set [2]: Acute toxicity in the mouse (LD50). Conditions: in vivo.

As for `COc1ccc(C(=O)N2CCCC2=O)cc1` [Aniracetam], in data set [1], the minimal effective dose worked out at 50 mg/kg.
As to `NC(=O)CN1CCCC1=O` [Piracetam], the minimal effective dose in data set [1] is 150 mg/kg.
Turning to `CCN(CC)c1nc(N(CCO)CCOC)nc2c(N(CC)CC)nc(N(CCO)CCOC)nc12` [Verbindung (B)], the LD50 is 133 mg/kg in data set [2] (iv, read-out: i.v. LD50) and above 3000 mg/kg in data set [2] (po, read-out: p.o. LD50).

Usually LD50 stands for the dose expected to kill half of the subjects tested.
